# Results published in patent US6391280B1, “J chain polypeptide targeting molecule linked to an imaging agent” (Epicyte Pharmaceutical, Inc., priority 1997, dated 2002).
# Marks after values point to notes of the source that are not given here.
# Assay: Molar Relaxivities 1/T1 of Paramagnetic Compounds
# Format: physicochemical
# Details: in water at 10.7 MHz, 37° C. (values marked *)
row,Compound,"Relaxation rate, molar relaxivity 1/T1"
1,O=C([O-])CN(CCN(CC(=O)[O-])CC(=O)O)CCN(CC(=O)[O-])CC(=O)O.[Gd+3] [GDDTP A],5.05* (mMs)^−1
2,[Cl][Gd]([Cl])[Cl] [GdCl],14.67* (mMs)^−1
3,[Cl][Mn][Cl] [MnCl2],9.32* (mMs)^−1
4,O=S(=O)([O-])c1ccc(-c2c3nc(c(-c4ccc(S(=O)(=O)[O-])cc4)c4ccc([n-]4)c(-c4ccc(S(=O)(=O)[O-])cc4)c4ccc([n-]4)c(-c4ccc(S(=O)(=O)[O-])cc4)c4nc2C=C4)C=C3)cc1.[Mn+3] [MnTPPS4],10.39* (mMs)^−1
